# Reference: patent publication US20240158446A1, “CYCLIC COMPOUND HAVING SELECTIVE INHIBITORY ACTION ON KRAS OVER HRAS AND NRAS” (CHUGAI SEIYAKU KABUSHIKI KAISHA, priority 2021, published 2024)
# Like-named read-outs stand apart in the source and are kept apart here. *1 amine or outer side, *2 acyl side, *3 side chain or, on linkers, in order; H or OH if unused. Where a SMILES comes first, the peptide text is derived from it. Bridges are numbered along the chain shown (N, C = ends). [ ]: non-standard residue; d: D form. The star is where a group is joined. hPhe(3-Cl-4-CF3) = N[C@@H](CCc1ccc(C(F)(F)F)c(Cl)c1)C(=O)O; NPrPhe(4-CF3) = CCCN[C@@H](Cc1ccc(C(F)(F)F)cc1)C(=O)O; X7 = CCN([C@H](C(=O)[*:2])C1CCCC1)[*:1]; NMeGly(cPent) = CN[C@H](C(=O)O)C1CCCC1; NMeD = CN[C@@H](CC(=O)O)C(=O)O; NMeL = CN[C@@H](CC(C)C)C(=O)O; Morpholide = C1CN(*)CCO1; NMeA = CN[C@@H](C)C(=O)O; Ac5c = NC1(C(=O)O)CCCC1; Aze = O=C(O)[C@@H]1CCN1; Ac4c = NC1(C(=O)O)CCC1; Sar = CNCC(=O)O
# How the values were obtained:
# [1] = target: GDP-bound KRAS wild-type protein (Homo sapiens, UniProt P01116); assay: Binding to KRAS by surface plasmon resonance (SPR), Single Cycle Kinetics; details: GDP-bound KRAS wild-type protein, read-out: KRAS KD
# Sequence of GDP-bound KRAS wild-type protein (P01116 whole entry): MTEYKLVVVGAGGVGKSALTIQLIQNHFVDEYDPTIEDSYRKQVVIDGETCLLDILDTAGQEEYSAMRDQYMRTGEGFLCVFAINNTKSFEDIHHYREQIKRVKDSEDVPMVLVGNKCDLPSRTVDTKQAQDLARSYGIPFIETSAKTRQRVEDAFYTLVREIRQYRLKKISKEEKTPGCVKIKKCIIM
# [2] = target: GDP-bound NRAS wild-type protein (Homo sapiens, UniProt P01111); assay: Binding to NRAS by surface plasmon resonance (SPR), Single Cycle Kinetics; details: for NRAS/KRAS (ratio of KD value for NRAS to KD value for KRAS) / NRAS/KRAS (ratio of KD value with respect to NRAS to KD value with respect to KRAS): SPR, GDP-bound NRAS wild-type protein vs GDP-bound KRAS wild-type protein; for NRAS/KRAS (ratio of KD value with respect to GDP-bound NRAS wild-type protein to KD value with respect to KRAS): SPR KD ratio NRAS/KRAS, class symbols
# Sequence of GDP-bound NRAS wild-type protein (P01111 whole entry): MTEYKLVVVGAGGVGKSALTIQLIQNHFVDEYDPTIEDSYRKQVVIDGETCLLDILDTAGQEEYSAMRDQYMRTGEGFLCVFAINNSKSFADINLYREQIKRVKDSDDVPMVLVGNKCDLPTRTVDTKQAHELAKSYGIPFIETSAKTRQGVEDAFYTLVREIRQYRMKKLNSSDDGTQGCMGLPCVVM
# [3] = target: GDP-bound HRAS wild-type protein (Homo sapiens, UniProt P01112); assay: Binding to HRAS by surface plasmon resonance (SPR), Single Cycle Kinetics; details: for HRAS/KRAS (ratio of KD value for HRAS to KD value for KRAS) / HRAS/KRAS (ratio of KD value with respect to HRAS to KD value with respect to KRAS): SPR, GDP-bound HRAS wild-type protein vs GDP-bound KRAS wild-type protein; for HRAS/KRAS (ratio of KD value with respect to GDP-bound HRAS wild-type protein to KD value with respect to KRAS): SPR KD ratio HRAS/KRAS, class symbols
# Sequence of GDP-bound HRAS wild-type protein (P01112 whole entry): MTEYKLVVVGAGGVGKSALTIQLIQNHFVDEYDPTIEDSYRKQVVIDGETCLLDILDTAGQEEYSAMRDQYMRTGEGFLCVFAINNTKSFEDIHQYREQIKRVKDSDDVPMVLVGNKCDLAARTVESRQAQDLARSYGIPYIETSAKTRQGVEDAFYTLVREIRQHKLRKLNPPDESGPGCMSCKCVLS
# [4] = SPR Single Cycle Kinetics, 1:1 binding model
Compound,"Kd [1, 4]","Kd ([1]; SPR, Single Cycle Kinetics)",NRAS/KRAS (ratio of KD value for NRAS to KD value for KRAS) [2],HRAS/KRAS (ratio of KD value for HRAS to KD value for KRAS) [3],other results
CC[C@H](C)[C@@H]1NC(=O)[C@H](CC(C)C)N(C)C(=O)C[C@@H](C(=O)N2CCOCC2)N(C)C(=O)[C@H](C2CCCC2)N(C)C(=O)C2(CCCC2)NC(=O)[C@@H]2CCCN2C(=O)[C@H](CCc2ccc(C(F)(F)F)c(Cl)c2)NC(=O)CN(C)C(=O)[C@H](C2CCCC2)N(CC)C(=O)[C@@H]2CCN2C(=O)[C@H](C)N(C)C1=O [PP0003] ([NMeL]I[NMeA][Aze][X7][Sar][hPhe(3-Cl-4-CF3)]P[Ac5c][NMeGly(cPent)][NMeD]-Morpholide; lactam N-11),2 nM,–,C (A compound having a KD ratio of 0.1 or more and less than 3 is denoted as C),C (A compound having a KD ratio of 0.1 or more and less than 3 is denoted as C),–
CCO[C@@H]1C[C@H]2C(=O)NC3(CCC3)C(=O)N(C)[C@@H](C(CC)CC)C(=O)N(C)[C@H](C(=O)N(C)C)CC(=O)N(C)[C@@H](CC(C)C)C(=O)N[C@@H]([C@@H](C)CC)C(=O)N(C)CC(=O)N(C)[C@H]3C/C=C\CCN(C3=O)[C@@H](Cc3ccc(F)cc3C)C(=O)N(C)CC(=O)N[C@@H](CCc3cc(F)c(C(F)(F)F)c(F)c3)C(=O)N2C1 [PP1518],–,–,–,–,"Kd ([1]; SPR, Single Cycle Kinetics, 1:1 binding model): 0.58 nM; NRAS/KRAS (ratio of KD value for NRAS to KD value for KRAS) ([2]; KD ratio class): A (a compound having 10 or more and less than 20 is denoted as A); HRAS/KRAS (ratio of KD value for HRAS to KD value for KRAS) ([3]; KD ratio class): B (a compound having 3 or more and less than 10 is denoted as B)"
CCO[C@@H]1C[C@H]2C(=O)NC3(CCC3)C(=O)N(C)[C@@H](C3CCCC3)C(=O)N(C)[C@H](C(=O)N(C)C)CC(=O)N(C)[C@@H](CC(C)C)C(=O)N[C@@H]([C@@H](C)CC)C(=O)N(C)CC(=O)N(C)[C@H]3CCCCN(C3=O)[C@@H](Cc3ccc(C(F)(F)F)cc3)C(=O)N(C)CC(=O)N[C@@H](CCc3cc(F)c(C(F)(F)F)c(F)c3)C(=O)N2C1 [PP0580],0.015 nM,–,–,–,NRAS/KRAS (ratio of KD value with respect to NRAS to KD value with respect to KRAS) [2]: C (A compound having a KD ratio of 0.1 or more and less than 3 is denoted as C); HRAS/KRAS (ratio of KD value with respect to HRAS to KD value with respect to KRAS) [3]: C (A compound having a KD ratio of 0.1 or more and less than 3 is denoted as C)
CCCN1C(=O)[C@@H]2CCN2C(=O)[C@H](C)N(C)C(=O)[C@H]([C@@H](C)CC)NC(=O)[C@H](CC(C)C)N(C)C(=O)C[C@@H](C(=O)N2CCOCC2)NC(=O)[C@H](C2CCCC2)N(C)C(=O)C2(CCC2)NC(=O)[C@@H]2CCCN2C(=O)[C@H](CCc2ccc(C(F)(F)F)c(Cl)c2)NC(=O)CN(C)C(=O)[C@@H]1Cc1ccc(C(F)(F)F)cc1 [PP0344] ([NMeL]I[NMeA][Aze][NPrPhe(4-CF3)][Sar][hPhe(3-Cl-4-CF3)]P[Ac4c][NMeGly(cPent)]D-Morpholide; lactam N-11),1.1 nM,–,C (A compound having a KD ratio of 0.1 or more and less than 3 is denoted as C),B (a compound having 3 or more and less than 10 is denoted as B),–
CC[C@H](C)[C@@H]1NC(=O)[C@H](COC)N(C)C(=O)C[C@@H](C(=O)N2CCOCC2)N(C)C(=O)[C@H](C2CCCC2)N(C)C(=O)C2(CCC2)NC(=O)[C@@H]2CC(F)(F)CN2C(=O)[C@H](CCc2cc(F)c(C(F)(F)F)c(F)c2)NC(=O)CN(C)C(=O)[C@H](Cc2ccc(C(F)(F)F)cc2)N2CCCCC[C@@H](C2=O)N(C)C(=O)CNC1=O [PP0861],–,0.66 nM,B (a compound having 3 or more and less than 10 is denoted as B),B (a compound having 3 or more and less than 10 is denoted as B),–
CC[C@H](C)[C@@H]1NC(=O)[C@H](CC(C)C)N(C)C(=O)C[C@@H](C(=O)N2CCOCC2)N(C)C(=O)[C@H](C2CCCC2)N(C)C(=O)C2(CCCC2)NC(=O)[C@H](C)N(CC)C(=O)[C@H](CCc2cc(F)c(C(F)(F)F)c(F)c2)NC(=O)CN(C)C(=O)[C@H](Cc2ccc(C(F)(F)F)cc2)N2CCCC[C@@H](C2=O)N(C)C(=O)CN(C)C1=O [PP0589],0.36 nM,–,–,–,NRAS/KRAS (ratio of KD value with respect to NRAS to KD value with respect to KRAS) [2]: B (a compound having 3 or more and less than 10 is denoted as B); HRAS/KRAS (ratio of KD value with respect to HRAS to KD value with respect to KRAS) [3]: B (a compound having 3 or more and less than 10 is denoted as B)

# More lines, main results first:
"Kd [1, 4]","Kd ([1]; SPR, Single Cycle Kinetics)",Compound,NRAS/KRAS (ratio of KD value for NRAS to KD value for KRAS) [2],HRAS/KRAS (ratio of KD value for HRAS to KD value for KRAS) [3],other results
–,0.15 nM,CCO[C@@H]1C[C@H]2C(=O)NC3(CCCC3)C(=O)N(C)[C@@H](C3CCCC3)C(=O)N(C)[C@H](C(=O)N(C)C)CC(=O)N(C)[C@@H](CC(C)C)C(=O)N[C@@H]([C@@H](C)CC)C(=O)N(C)CC(=O)N(C)[C@H]3C/C=C\CCN(C3=O)[C@@H](Cc3ccc(C)cc3)C(=O)N(C)CC(=O)N[C@@H](CCc3ccc(C(F)(F)F)c(OC)c3)C(=O)N2C1 [PP2197],A (a compound having 10 or more and less than 20 is denoted as A),B (a compound having 3 or more and less than 10 is denoted as B),–
–,1.4 nM,CCO[C@@H]1C[C@H]2C(=O)N[C@@]3(C)CCCCCCC[C@@H](C(=O)N[C@@H]([C@@H](C)CC)C(=O)N(C)CC(=O)N(C)[C@H]4CCCCN(C4=O)[C@@H](Cc4ccc(C(F)(F)F)cc4)C(=O)N(C)CC(=O)N[C@@H](CCc4cc(F)c(C(F)(F)F)c(F)c4)C(=O)N2C1)N(C)C(=O)C[C@@H](C(=O)N1CCOCC1)N(C)C(=O)[C@H](C1CCCC1)N(C)C3=O [PP0993],B (a compound having 3 or more and less than 10 is denoted as B),B (a compound having 3 or more and less than 10 is denoted as B),–
–,0.07 nM,"CCO[C@@H]1C[C@H]2C(=O)NC3(CCC3)C(=O)N(C)[C@@H](C3CCCC3)C(=O)N(C)[C@H](C(=O)N(C)C)CC(=O)N(C)[C@@H](CC3CCCCC3)C(=O)N[C@@H]([C@@H](C)CC)C(=O)N(C)CC(=O)N(C)[C@H]3C/C=C\CCN(C3=O)[C@@H](Cc3ccc(C(F)(F)F)cc3)C(=O)N(C)CC(=O)N[C@@H](CCc3cc(F)c(C(F)(F)F)c(F)c3)C(=O)N2C1 [PP1125, (2S,8S,12R,14S,20S,23S,27S,30S,36S,38Z)-27-(cyclohexylmethyl)-20-cyclopentyl-8-[2-[3,5-difluoro-4-(trifluoromethyl)phenyl]ethyl]-12-ethoxy-N,N,4,19,22,26,32,35-octamethyl-30-[(1S)-1-methylpropyl]-3,6,9,15,18,21,25,28,31,34,42-undecaoxo-2-[[4-(trifluoromethyl)phenyl]methyl]spiro[1,4,7,10,16,19,22,26,29,32,35-undecazatricyclo[34.5.1.0^10,14]dotetracont-38-ene-17,1′-cyclobutane]-23-carboxamide]",A (a compound having 10 or more and less than 20 is denoted as A),A (a compound having 10 or more and less than 20 is denoted as A),–
5.9 nM,–,CCC[C@H]1C(=O)N[C@@H]([C@@H](C)CC)C(=O)N(C2CC2)CC(=O)N(C)[C@H]2C/C=C\CCN(C2=O)[C@@H](Cc2ccc(C)cc2)C(=O)N(C)CC(=O)N[C@@H](CCc2ccc(C(F)(F)F)c(OC)c2)C(=O)N2C[C@H](OCC)C[C@H]2C(=O)NC2(CC(C)(C)C2)C(=O)N(C)[C@@H](CC2CC2)C(=O)N(C)[C@H](C(=O)N(C)C)CC(=O)N1C [PP2803],–,–,NRAS/KRAS (ratio of KD value with respect to GDP-bound NRAS wild-type protein to KD value with respect to KRAS) [2]: A (a compound having 10 or more and less than 20 is denoted as A); HRAS/KRAS (ratio of KD value with respect to GDP-bound HRAS wild-type protein to KD value with respect to KRAS) [3]: A (a compound having 10 or more and less than 20 is denoted as A)
–,0.23 nM,CC[C@H](C)[C@@H]1NC(=O)[C@H](CC(C)C)N(C)C(=O)C[C@@H](C(=O)N2CCOCC2)N(C)C(=O)[C@H](C2CCCC2)N(C)C(=O)C2(CCCC2)NC(=O)[C@@H]2CC(F)(F)CN2C(=O)[C@H](CCc2ccc(C(F)(F)F)c(Cl)c2)NC(=O)CN(C)C(=O)[C@H](Cc2ccc(F)cc2)N2CCCCC[C@@H](C2=O)N(C)C(=O)CN(C)C1=O [PP0966],B (a compound having 3 or more and less than 10 is denoted as B),B (a compound having 3 or more and less than 10 is denoted as B),–
–,0.11 nM,CC[C@H](C)[C@@H]1NC(=O)[C@H](COC)N(C)C(=O)C[C@@H](C(=O)N(C)C)N(C)C(=O)[C@H](C2CCCC2)N(C)C(=O)C2(CC(C)(C)C2)NC(=O)[C@@H]2C[C@@H](C)CN2C(=O)[C@H](CCc2ccc(C(F)(F)F)c(OC)c2)NC(=O)CN(C)C(=O)[C@H](Cc2ccc(C)cc2)N2CC/C=C\C[C@@H](C2=O)N(C)C(=O)CN(C)C1=O [PP2387],A (a compound having 10 or more and less than 20 is denoted as A),A (a compound having 10 or more and less than 20 is denoted as A),–
0.065 nM,–,CCO[C@@H]1C[C@H]2C(=O)NC3(CC(C)(C)C3)C(=O)N(C)[C@@H](C3CCCC3)C(=O)N(C)[C@H](C(=O)N(C)CC)CC(=O)N(C)[C@@H](COC)C(=O)N[C@@H]([C@@H](C)CC)C(=O)N(C)CC(=O)N(C)[C@H]3C/C=C\CCN(C3=O)[C@@H](Cc3ccc(C(F)(F)F)cc3)C(=O)N(C)CC(=O)N[C@@H](CCc3ccc(C(F)(F)F)c(Cl)c3)C(=O)N2C1 [PP2836],–,–,NRAS/KRAS (ratio of KD value with respect to GDP-bound NRAS wild-type protein to KD value with respect to KRAS) [2]: A (a compound having 10 or more and less than 20 is denoted as A); HRAS/KRAS (ratio of KD value with respect to GDP-bound HRAS wild-type protein to KD value with respect to KRAS) [3]: A (a compound having 10 or more and less than 20 is denoted as A)
